Results from patent US8815846B2, “Family of antichagasics derived from imidazo[4,5-C][1,2,6]thiadiazine 2,2-dioxide” (Universidad de la Republica de Uruguay, priority 2009, dated 2014).
Read-outs that look alike come from different tables or passages of the source. Blank lines part the entries; values can stand above or below the compound they belong to.

What was measured:
cruzipain = cruzipain (Trypanosoma cruzi, UniProt P25779); assay: Cruzipain enzyme inhibition (chromogenic substrate Bz-Pro-Phe-Arg-p-NA, absorbance 410 nm); type: biochemical; conditions: 10 min preincubation, pH 7.6, read-out: % Inhibition CP (cruzipain); for inhibition at 25 µM: 25 μM inhibitor; for inhibition at 50 µM: 50 μM inhibitor; for inhibition at 100 µM: 100 μM inhibitor
Method: The capacity of inhibiting the cruzipain enzyme was performed according to the protocol detailed below: cruzipain (10 μL) was incubated with a reaction mixture containing a final concentration of 50 mM of Tris-HCl buffer solution, pH 7.6, 10 mM β-mercaptoethanol and 25, 50 or 100 μM of the inhibitor during 10 min at ambient temperature. Later the chromogenic substrate Bz-Pro-Phe-Arg-p-NA was aggregated at a final concentration of 150 μM, and the increase in absorbance at 410 nm was followed for 5 min at temperature in a Beckman DU 650 spectrophotometer. The inhibitors were added dissolved in DMSO and the controls (100% of enzymatic activity) contained the same concentration of solvent. The final volume of the assay is 100 μL. The values represented at least three independent assays. The data obtained for some of the derivatives in table 3 are shown by way of example.

[1] = test system: Trypanosoma cruzi, epimastigote form of the Tulahuen 2 strain; assay: In vitro growth inhibition of Trypanosoma cruzi epimastigotes (Tulahuen 2 strain), absorbance at 600 nm; type: cell-based; conditions: 120 h, absorbance on day 5, duplicate, error ±3%, read-out: IC50 Anti-T. cruzi activity of the Tulahuen 2 strain
Method: The studies of the antichagasic activity were performed in vitro against Trypanosoma cruzi, on the epimastigote form of the Tulahuen 2 strains, (from the strains collection of the Biological Physicochemistry Laboratory, of the Institute of Biological Chemistry, of the Faculty of Science, University of the Republica Oriental of Uruguay, Uruguay). Said strains were cultured at 28° C. in an axenic medium (BHI-tryptose), complemented with 5% of fetal bovine serum. […] The growth of the parasite was followed during 11 days by culture absorbance measurements at 600 nm, proportional to the number of cells present. Before inoculation, a pre-established quantity of each compound of the invention to test was incorporated in the medium, dissolved in DMSO (dimethylsulfoxide). The final concentration of DMSO in the culture medium never exceeded 0.4%, using a blank (absence of product or compound of the invention) with 0.4% DMSO. […] The growth PI was calculated as follows: PI={1−[(Ap−Aop)/(Ac−Aoc)]}×100 where: • Ap=A600 nm of the culture containing the product on day 5. • Aop=A600 nm of the culture containing the product after addition of the culture (day 0). • Ac=A600 nm of the blank on day 5. • Aoc=A600 nm of the blank on day 0. The A600 nm taken on day 5 corresponds to the late exponential phase in the culture growth curve. The determination of the IC50 (half maximal inhibitory concentration) was performed following the growth of the parasite in the absence (control) and presence of increasing concentrations of the corresponding products. The absorbance was measured on day 5 and it was related to the control.

J774 murine macrophages = assay: Non-specific cytotoxicity against J774 murine macrophages (MTT/formazan); type: cell-based; conditions: for IC50: Mus musculus, read-out: IC50 concentration of compound which reduces the growth of macrophages by 50%; for PC J774 macrophages (%) (percentage of non-specific cytotoxicity): MTT
Method: The cellular viability was determined based on the conservation of mitochondrial activity by the MTT/formazan method.

[2] = J774 murine macrophages, 48 hours, average of two evaluations

Sequence of cruzipain (P25779 123-467): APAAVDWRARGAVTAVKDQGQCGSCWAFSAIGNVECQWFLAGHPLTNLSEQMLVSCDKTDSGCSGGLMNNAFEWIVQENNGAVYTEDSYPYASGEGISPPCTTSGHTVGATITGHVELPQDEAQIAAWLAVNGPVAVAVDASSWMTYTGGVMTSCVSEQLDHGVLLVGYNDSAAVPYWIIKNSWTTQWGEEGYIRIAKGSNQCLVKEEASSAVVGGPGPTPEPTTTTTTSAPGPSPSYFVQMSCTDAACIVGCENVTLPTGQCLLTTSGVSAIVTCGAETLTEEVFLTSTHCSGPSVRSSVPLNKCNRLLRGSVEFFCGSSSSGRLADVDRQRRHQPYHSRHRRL

- IC50 [1]: 20.3 µM
Compound: NC1=NS(=O)(=O)Nc2nc(C3CCOC3)[nH]c21 (stereo not shown) [drawing 12]

- IC50 [1]: 28.9 µM
Compound: NC1=NS(=O)(=O)Nc2nc(C3CCCC3)[nH]c21

- IC50 [1]: 16.2 µM
Compound: NC1=NS(=O)(=O)Nc2nc(Cc3ccccc3)[nH]c21 [drawing 7]

- IC50 [1]: 28.5 µM
Compound: CCc1nc2c([nH]1)C(N)=NS(=O)(=O)N2

- melting point: 238 to 240 °C
Compound: NC1=NS(=O)(=O)Nc2nc(C3CCOC3)[nH]c21 (stereo not shown) [Example 1b, 4-amino-6-(3-tetrahydrofuryl)-1H,5H-imidazo[4,5-c][1,2,6]thiadiazine 2,2-dioxide]

- inhibition at 25 µM (cruzipain): 0%
- inhibition at 50 µM (cruzipain): 7%
- inhibition at 100 µM (cruzipain): 28%
Compound: NC1=NS(=O)(=O)N(Cc2ccc(Cl)cc2)c2nc(C3CCCCC3)[nH]c21

- melting point: 263 to 265 °C
Compound: NC1=NS(=O)(=O)Nc2nc(C3CCCCC3)[nH]c21 [Example 1a, 4-amino-6-cyclohexyl-1H,5H-imidazo[4,5-c][1,2,6]thiadiazine 2,2-dioxide]

- IC50 [1]: 12.7 µM
Compound: NC1=NS(=O)(=O)Nc2nc(C3CCCCC3)[nH]c21 [drawing 11]

- IC50 [1]: 22.2 µM
Compound: NC1=NS(=O)(=O)Nc2nc(-c3ccsc3)[nH]c21

- IC50 [1]: 20.2 µM
Compound: NC1=NS(=O)(=O)Nc2nc(-c3ccccc3F)[nH]c21

- IC50 [1]: 11.5 µM
Compound: NC1=NS(=O)(=O)Nc2nc(CCc3ccccc3)[nH]c21 [drawing 14]

Further lines, the compound ahead of its results:

Compound: NC1=NS(=O)(=O)N(Cc2ccccc2)c2nc(C3CCCCC3)n(Cc3ccc(Cl)cc3)c21
- inhibition at 25 µM (cruzipain): 10%
- inhibition at 50 µM (cruzipain): 39%
- inhibition at 100 µM (cruzipain): 40%

Compound: NC1=NS(=O)(=O)N(Cc2ccc(Cl)cc2)c2nc(C3CCCCC3)n(Cc3ccc(Cl)cc3)c21
- inhibition at 100 µM (cruzipain): 31%

Compound: NC1=NS(=O)(=O)N(Cc2ccccc2)c2nc(-c3ccccc3)n(Cc3ccc(Cl)cc3)c21 [Example 3b, 4-amino-1-benzyl-5-(4-chlorobenzyl)-6-phenylimidazo[4,5-c][1,2,6]thiadiazine 2,2-dioxide]
- melting point: 245 to 247 °C

Compound: NC1=NS(=O)(=O)Nc2nc(CCc3ccccc3)[nH]c21 [Example 1c, 4-amino-6-phenethyl-1H,5H-imidazo[4,5-c][1,2,6]thiadiazine 2,2-dioxide]
- melting point: 190 to 192 °C

Compound: NC1=NS(=O)(=O)N(Cc2ccc(Cl)cc2)c2nc(-c3ccccc3F)[nH]c21 [drawing 16]
- IC50 [1]: 7 µM

Compound: CC1CS(=O)(=O)CCN1N=Cc1ccc([N+](=O)[O-])o1 (stereo not shown) [Nifurtimox, 4-([5 nitrofurfurylidene]-amino)-3-methylthiomorpholine-1,1-dioxide, reference compound]
- IC50 [1]: 7.7 µM
- IC50 (J774 murine macrophages; J774, 48 h): 316 µM

Compound: NC1=NS(=O)(=O)Nc2nc(Cc3ccccc3)[nH]c21 [drawing 19]
- PC J774 macrophages (%) (percentage of non-specific cytotoxicity) (J774 murine macrophages; 100 μM compound, 48 hours): 17.6%
- PC J774 macrophages (%) (percentage of non-specific cytotoxicity) (J774 murine macrophages; 200 μM compound, 48 hours): 24.3%
- PC J774 macrophages (%) (percentage of non-specific cytotoxicity) (J774 murine macrophages; 400 μM compound, 48 hours): 29.4%
- IC50 (J774 murine macrophages; [2]): > 400 µM

Compound: NC1=NS(=O)(=O)N(Cc2ccccc2)c2nc(-c3ccccc3)n(Cc3ccccc3)c21 [Example 3a, 4-amino-1,5-dibenzyl-6-phenylimidazo[4,5-c][1,2,6]thiadiazine 2,2-dioxide]
- melting point: 238 to 240 °C

Compound: NC1=NS(=O)(=O)N(Cc2ccccc2)c2nc(C3CCCCC3)n(Cc3ccccc3)c21 [drawing 17]
- IC50 [1]: 28.7 µM

Compound: NC1=NS(=O)(=O)N(Cc2ccccc2)c2nc(-c3ccccc3)[nH]c21
- IC50 [1]: 29.5 µM

Compound: CN1c2nc(-c3ccccc3)[nH]c2C(N)=NS1(=O)=O [drawing 8]
- IC50 [1]: 16.7 µM

Compound: O=C(Cn1ccnc1[N+](=O)[O-])NCc1ccccc1 [Benznidazole, N-benzyl-2-nitro-1-imidazole acetamide, reference compound]
- IC50 [1]: 7.4 µM

Compound: NC1=NS(=O)(=O)N(Cc2ccc(Cl)cc2)c2nc(-c3ccccc3F)[nH]c21 [drawing 27]
- inhibition at 25 µM (cruzipain): 7%
- inhibition at 50 µM (cruzipain): 30%
- inhibition at 100 µM (cruzipain): 30%

Compound: NC1=NS(=O)(=O)N(Cc2ccc(Cl)cc2)c2nc(-c3ccccc3F)[nH]c21 [drawing 21]
- PC J774 macrophages (%) (percentage of non-specific cytotoxicity) (J774 murine macrophages; 100 μM compound, 48 hours): 100.0%
- PC J774 macrophages (%) (percentage of non-specific cytotoxicity) (J774 murine macrophages; 200 μM compound, 48 hours): 100.0%
- PC J774 macrophages (%) (percentage of non-specific cytotoxicity) (J774 murine macrophages; 400 μM compound, 48 hours): 100.0%
- IC50 (J774 murine macrophages; [2]): < 100 µM

Compound: CN(C/C=C/C#CC(C)(C)C)Cc1cccc2ccccc12 [Terbinafine, reference compound]
- PC J774 macrophages (%) (percentage of non-specific cytotoxicity) (J774 murine macrophages; 100 μM compound, 48 hours): 10.0%
- PC J774 macrophages (%) (percentage of non-specific cytotoxicity) (J774 murine macrophages; 200 μM compound, 48 hours): 26.0%
- PC J774 macrophages (%) (percentage of non-specific cytotoxicity) (J774 murine macrophages; 400 μM compound, 48 hours): 60.0%
- IC50 (J774 murine macrophages; [2]): 339 µM

Compound: NC1=NS(=O)(=O)N(Cc2ccccc2)c2nc(-c3ccccc3)n(Cc3ccccc3)c21 [drawing 10]
- IC50 [1]: 4.5 µM

Compound: NC1=NS(=O)(=O)Nc2nc(C3CCCCC3)[nH]c21 [drawing 20]
- PC J774 macrophages (%) (percentage of non-specific cytotoxicity) (J774 murine macrophages; 100 μM compound, 48 hours): 1.4%
- PC J774 macrophages (%) (percentage of non-specific cytotoxicity) (J774 murine macrophages; 200 μM compound, 48 hours): 8.0%
- PC J774 macrophages (%) (percentage of non-specific cytotoxicity) (J774 murine macrophages; 400 μM compound, 48 hours): 11.5%
- IC50 (J774 murine macrophages; [2]): > 400 µM

Compound: CN(C)c1ccc(-c2nc3c([nH]2)C(N)=NS(=O)(=O)N3)cc1
- IC50 [1]: 28.5 µM

Compound: CN1c2nc(-c3ccccc3)[nH]c2C(N)=NS1(=O)=O [drawing 22]
- PC J774 macrophages (%) (percentage of non-specific cytotoxicity) (J774 murine macrophages; 100 μM compound, 48 hours): 22.5%
- PC J774 macrophages (%) (percentage of non-specific cytotoxicity) (J774 murine macrophages; 200 μM compound, 48 hours): 77.5%
- PC J774 macrophages (%) (percentage of non-specific cytotoxicity) (J774 murine macrophages; 400 μM compound, 48 hours): 99.0%
- IC50 (J774 murine macrophages; [2]): 128 µM

Compound: CN1c2nc(-c3ccsc3)[nH]c2C(N)=NS1(=O)=O
- IC50 [1]: 26.2 µM

Compound: CC(=O)N1CCN(c2ccc(OCC3COC(Cn4ccnc4)(c4ccc(Cl)cc4Cl)O3)cc2)CC1 (stereo not shown) [Ketoconazole, reference compound]
- IC50 (J774 murine macrophages; J774, 48 h): < 100 µM

Compound: NC1=NS(=O)(=O)N(Cc2ccccc2)c2nc(-c3ccccc3)n(Cc3ccc(Cl)cc3)c21 [drawing 18]
- IC50 [1]: 10 µM

Compound: NC1=NS(=O)(=O)N(Cc2ccccc2)c2nc(C3CCCCC3)n(Cc3ccccc3)c21 [drawing 23]
- inhibition at 25 µM (cruzipain): 0%
- inhibition at 50 µM (cruzipain): 30%
- inhibition at 100 µM (cruzipain): 58%
